Assay results reported in publication PMC4431183 (2015).

What was measured:
[1] = system: HteloDNA (DNA, G4) GGGTTAGGGTTAGGGTTAGGG; test: visible absorbance titration at 405 nm; details: 100 mM K+, 10 mM Mg2+, 2 mM Na+; 50 mM MES-LiOH pH 7.0, 2 mM NaOH, 25 °C; 12.5 µM hemin
[2] = system: dsDNA (DNA, duplex) AGAAGAGAAAGA/TCTTTCTCTTCT; test: visible absorbance titration at 405 nm; details: 100 mM K+, 10 mM Mg2+, 2 mM Na+; 50 mM MES-LiOH pH 7.0, 2 mM NaOH, 25 °C; 12.5 µM hemin; 0–250 µM dsDNA, change too small for Ka
[3] = system: dsDNA (DNA, duplex) AGAAGAGAAAGA/TCTTTCTCTTCT; test: visible absorbance titration at 424 nm; details: 100 mM K+, 10 mM Mg2+; 50 mM MES-LiOH pH 7.0, 25 °C; 1.0 µM TMPyP4
[4] = system: HteloDNA (DNA, G4) GGGTTAGGGTTAGGGTTAGGG; test: visible absorbance titration at 424 nm; details: 100 mM K+, 10 mM Mg2+; 50 mM MES-LiOH pH 7.0, 25 °C; 1.0 µM TMPyP4

SMILES | Ka [1] | binding [2] | Ka [3] | Ka [4]
C=CC1=C(C)C2=Cc3c(C=C)c(C)c4[n]3[Fe]([Cl])[n]3c(c(C)c(CCC(=O)O)c3=CC3=NC(=C4)C(C)=C3CCC(=O)O)=CC1=N2 | (5.5 ± 3.1) × 10^4 M^−1 | weak | – | –
C[n+]1ccc(-c2c3nc(c(-c4cc[n+](C)cc4)c4ccc([nH]4)c(-c4cc[n+](C)cc4)c4nc(c(-c5cc[n+](C)cc5)c5ccc2[nH]5)C=C4)C=C3)cc1 | – | – | (1.8 ± 0.6) × 10^5 M^−1 | (1.2 ± 0.1) × 10^6 M^−1
